According to US6426360B1, “4,5-substituted imidazolyl compounds for the treatment of inflammation” (G D Searle & Co., priority 1994, dated 2002):

Assays:
[1] = target: T1, Human COX I (Homo sapiens, UniProt P23219); experiment: COX I activity in vitro (PGE2 ELISA, recombinant enzyme); format: biochemical; settings: arachidonic acid 10 μM, pre-incubation 10-20 minutes; read-out: Human COX I ID50
T1 construct: A 2.0 kb fragment containing the coding region of either human or murine COX-I or human or murine COX-II; made in house; host or cells: SF9 insect cells (recombinant baculovirus, transfer vector pVL1393)
T1 sequence (P23219 24-599): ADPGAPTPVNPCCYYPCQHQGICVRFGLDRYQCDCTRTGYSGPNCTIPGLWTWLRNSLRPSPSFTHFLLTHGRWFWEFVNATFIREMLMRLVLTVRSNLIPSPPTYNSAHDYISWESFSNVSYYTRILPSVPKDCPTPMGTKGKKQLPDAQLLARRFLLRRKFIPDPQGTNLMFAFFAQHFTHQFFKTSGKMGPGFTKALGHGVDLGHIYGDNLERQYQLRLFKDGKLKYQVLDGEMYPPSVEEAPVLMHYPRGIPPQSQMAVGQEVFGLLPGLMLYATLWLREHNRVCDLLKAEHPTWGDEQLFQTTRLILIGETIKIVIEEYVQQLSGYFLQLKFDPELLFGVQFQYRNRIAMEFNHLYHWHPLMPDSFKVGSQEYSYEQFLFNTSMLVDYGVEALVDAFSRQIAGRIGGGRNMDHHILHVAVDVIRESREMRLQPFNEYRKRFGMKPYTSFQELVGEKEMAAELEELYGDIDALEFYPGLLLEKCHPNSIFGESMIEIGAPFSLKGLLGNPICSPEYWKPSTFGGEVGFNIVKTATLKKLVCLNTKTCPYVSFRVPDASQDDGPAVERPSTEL
Protocol: (§1) A 2.0 kb fragment containing the coding region of either human or murine COX-I or human or murine COX-II was cloned into a BamH1 site of the baculovirus transfer vector pVL1393 (Invitrogen) to generate the baculovirus transfer vectors for COX-I and COX-II in a manner similar to the method of D. R. O'Reilly et al (Baculovirus Expression Vectors: A Laboratory Manual (1992)). Recombinant baculoviruses were isolated by transfecting 4 μg of baculovirus transfer vector DNA into SF9 insect cells ([…]) along with 200 ng of linearized baculovirus plasmid DNA by the calcium phosphate method. See M. D. Summers and G. E. Smith, A Manual of Methods for Baculovirus Vectors and Insect Cell Culture Procedures, Texas Agric. Exp. Station Bull. 1555 (1987). Recombinant viruses were purified by three rounds of plaque purification and high titer (10E7-10E8 pfu/ml), stocks of virus were prepared. For large scale production, SF9 insect cells were infected in 10 liter fermentors (0.5×10^6/ml) with the recombinant baculovirus stock such that the multiplicity of infection was 0.1. After 72 hours the cells were centrifuged and the cell pellet homogenized in Tris/Sucrose (50 mM: 25%, pH 8.0) containing 1% 3-[(3-cholamidopropyl)dimethylammonio]-1-propanesulfonate (CHAPS). The homogenate was centrifuged at 10,000×G for 30 minutes, and the resultant supernatant was stored at −80° C. before being assayed for COX activity.
(§2) COX activity was assayed as PGE2 formed/μg protein/time using an ELISA to detect the prostaglandin released. CHAPS-solubilized insect cell membranes containing the appropriate COX enzyme were incubated in a potassium phosphate buffer (50 mM, pH 8.0) containing epinephrine, phenol, and heme with the addition of arachidonic acid (10 μM). Compounds were pre-incubated with the enzyme for 10-20 minutes prior to the addition of arachidonic acid. Any reaction between the arachidonic acid and the enzyme was stopped after ten minutes at 37° C./room temperature by transferring 40 μl of reaction mix into 160 μl ELISA buffer and 25 μM indomethacin. The PGE2 formed was measured by standard ELISA technology (Cayman Chemical).

[2] = target: T2, Human COX II (Homo sapiens, UniProt P35354); experiment: COX II activity in vitro (PGE2 ELISA, recombinant enzyme); format: biochemical; settings: arachidonic acid 10 μM, pre-incubation 10-20 minutes; read-out: Human COX II ID50
T2 construct: A 2.0 kb fragment containing the coding region of either human or murine COX-I or human or murine COX-II; made in house; host or cells: SF9 insect cells (recombinant baculovirus, transfer vector pVL1393)
T2 sequence (P35354 18-604): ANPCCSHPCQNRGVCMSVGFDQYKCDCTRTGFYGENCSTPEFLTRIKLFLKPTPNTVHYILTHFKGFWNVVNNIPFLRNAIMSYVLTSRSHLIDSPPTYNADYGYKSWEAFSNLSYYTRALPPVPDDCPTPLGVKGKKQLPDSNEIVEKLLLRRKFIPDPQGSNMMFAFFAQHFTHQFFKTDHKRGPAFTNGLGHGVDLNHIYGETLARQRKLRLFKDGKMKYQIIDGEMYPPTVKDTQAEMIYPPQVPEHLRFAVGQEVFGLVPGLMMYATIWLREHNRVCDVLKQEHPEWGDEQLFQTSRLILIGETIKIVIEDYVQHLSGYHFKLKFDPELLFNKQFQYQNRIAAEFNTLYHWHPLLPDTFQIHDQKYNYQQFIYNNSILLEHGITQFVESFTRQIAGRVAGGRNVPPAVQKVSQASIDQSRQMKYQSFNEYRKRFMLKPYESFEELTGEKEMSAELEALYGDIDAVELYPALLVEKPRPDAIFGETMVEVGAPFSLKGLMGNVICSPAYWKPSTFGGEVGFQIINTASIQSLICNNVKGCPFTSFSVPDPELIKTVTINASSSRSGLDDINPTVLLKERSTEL
Protocol: The COX II inhibition activity of the compounds of this invention illustrated in the Examples was determined by the following methods.
as §1, §2

SMILES	melting point	IC50 [1]	IC50 [2]
CS(=O)(=O)c1ccc(-c2nc(C(F)(F)F)[nH]c2-c2cccc(F)c2)cc1 [Example 66, 5-(3-Fluorophenyl)-4-[4-(methylsulfonyl)phenyl]-2-(trifluoromethyl)-1H-imidazole]	225 to 229 °C	–	–
Cc1ccccc1-c1[nH]c(C(F)(F)F)nc1-c1ccc(S(C)(=O)=O)cc1 [Example 67, 5-(2-Methylphenyl)-4-[4-(methylsulfonyl)phenyl]-2-(trifluoromethyl)-1H-imidazole]	180 to 190 °C	–	–
CC(O)(c1nc(-c2ccc(F)cc2)c(-c2ccc(S(C)(=O)=O)cc2)[nH]1)C(F)(F)F (stereo not drawn) [Example 91, 4-(4-Fluorophenyl)-α-methyl-5-[4-(methylsulfonyl)phenyl]-α-(trifluoromethyl)-1H-imidazole-2-methanol]	–	> 100 µM	5.9 µM
Cc1cc(-c2[nH]c(C(F)(F)F)nc2-c2ccc(S(C)(=O)=O)cc2)ccc1Cl [Example 71, 5-(4-Chloro-3-methylphenyl)-4-[4-(methylsulfonyl)phenyl]-2-(trifluoromethyl)-1H-imidazole]	261 to 264 °C	–	–
Cc1nc(-c2ccc(S(C)(=O)=O)cc2)c(-c2ccc(F)cc2)[nH]1 [Example 6, 5-(4-Fluorophenyl)-2-methyl-4-(4-methylsulfonylphenyl)-1H-imidazole]	–	> 100 µM	4.6 µM
C=CCOCc1nc(-c2ccc(F)cc2)c(-c2ccc(S(C)(=O)=O)cc2)[nH]1 [Example 80, 4-(4-Fluorophenyl)-5-[4-(methylsulfonyl)phenyl]-2-[(2-propenyloxy)methyl]-1H-imidazole]	–	> 100 µM	2.9 µM
NS(=O)(=O)c1ccc(-c2nc(C(F)(F)F)[nH]c2-c2ccc(F)cc2)cc1 [Example 21, 4-[5-(4-Fluorophenyl)-2-(trifluoromethyl)-1H-imidazol-4-yl]benzenesulfonamide]	259 to 260 °C	10.8 µM	–
COc1ccc(-c2[nH]c(C(F)(F)F)nc2-c2ccc(S(C)(=O)=O)cc2)cc1 [Example 15, 5-(4-Methoxyphenyl)-4-[4-(methylsulfonyl)phenyl]-2-(trifluoromethyl)-1H-imidazole]	–	5.6 µM	2.9 µM
CS(=O)(=O)c1ccc(-c2nc(SCc3ccccc3)[nH]c2-c2ccc(F)cc2)cc1 [Example 8, 2-Benzylthio-5-(4-fluorophenyl)-4-[4-(methylsulfonyl)phenyl]-1H-imidazole]	155 to 156 °C	2.1 µM	–
COc1ccc(-c2nc(C(F)(F)F)[nH]c2-c2ccc(S(C)(=O)=O)cc2)cc1C [Example 42, 4-(4-Methoxy-3-methylphenyl)-5-[4-(methylsulfonyl)phenyl]-2-(trifluoromethyl)-1H-imidazole]	265 to 267 °C	–	–
Cc1ccc(-c2[nH]c(C(F)(F)F)nc2-c2ccc(S(C)(=O)=O)cc2)cc1C [Example 61]	279 to 284 °C	–	–
CS(=O)(=O)c1ccc(-c2nc(C(F)(F)F)[nH]c2-c2cccc(Cl)c2)cc1 [Example 68, 5-(3-Chlorophenyl)-4-[4-(methylsulfonyl)phenyl]-2-(trifluoromethyl)-1H-imidazole]	224 to 226 °C	–	–
COc1c(C)cc(-c2[nH]c(C(F)(F)F)nc2-c2ccc(S(C)(=O)=O)cc2)cc1C [Example 52, 5-(3,5-Dimethyl-4-methoxyphenyl)-4-[4-(methylsulfonyl)phenyl]-2-(trifluoromethyl)-1H-imidazole]	265 to 267 °C	–	–
CS(=O)(=O)c1ccc(-c2nc(C(=O)Cc3ccccc3)[nH]c2-c2ccc(F)cc2)cc1 [Example 86, 1-[5-(4-Fluorophenyl)-4-[4-(methylsulfonyl)phenyl]-1H-imidazol-2-yl]-2-phenylethanone]	263.2 °C	–	–
CS(=O)(=O)c1ccc(-c2nc(C(F)(F)F)[nH]c2C2CCCC2)cc1 [Example 75, 5-(Cyclopentyl)-4-[4-(methylsulfonyl)phenyl]-2-(trifluoromethyl)-1H-imidazole]	210 to 212 °C	–	–
COc1ccc(-c2[nH]c(C(F)(F)F)nc2-c2ccc(S(C)(=O)=O)cc2)cc1Cl [Example 57, 5-(3-Chloro-4-methoxyphenyl)-4-[4-(methylsulfonyl)phenyl]-2-(trifluoromethyl)-1H-imidazole]	288 to 291 °C	–	–
Cn1c(C(F)(F)F)nc(-c2ccc(F)cc2)c1-c1ccc(S(C)(=O)=O)cc1 [Example 45, 4-(4-Fluorophenyl)-1-methyl-5-[4-(methylsulfonyl)phenyl]-2-(trifluoromethyl)-1H-imidazole]	193 to 195 °C	–	–
CS(=O)(=O)c1ccc(-c2nc(C(F)(F)F)[nH]c2C2CCCCC2)cc1 [Example 69, 5-(Cyclohexyl)-4-[4-(methylsulfonyl)phenyl]-2-(trifluoromethyl)-1H-imidazole]	250 to 253 °C	–	–
COc1cc(-c2[nH]c(C(F)(F)F)nc2-c2ccc(S(C)(=O)=O)cc2)ccc1Cl [Example 78, 5-(4-Chloro-3-methoxyphenyl)-4-[4-(methylsulfonyl)phenyl]-2-(trifluoromethyl)-1H-imidazole]	233 to 234 °C	–	–
CS(=O)(=O)c1ccc(-c2nc(C(F)(F)F)[nH]c2-c2ccsc2)cc1 [Example 76, 4-[4-(Methylsulfonyl)phenyl]-5-(3-thiophenyl)-2-(trifluoromethyl)-1H-imidazole]	230 to 232 °C	–	–
Cc1cc(C)cc(-c2[nH]c(C(F)(F)F)nc2-c2ccc(S(C)(=O)=O)cc2)c1 [Example 46, 5-(3,5-Dimethylphenyl)-4-[4-(methylsulfonyl)phenyl]-2-(trifluoromethyl)-1H-imidazole]	255 to 257 °C	–	–
COc1ccc(-c2nc(C(F)(F)F)[nH]c2-c2ccc(S(C)(=O)=O)cc2)cc1OC [Example 41, 4-(3,4-Dimethoxyphenyl)-5-[4-(methylsulfonyl)phenyl]-2-(trifluoromethyl)-1H-imidazole]	221 to 224 °C	–	–
Cc1c(F)cccc1-c1[nH]c(C(F)(F)F)nc1-c1ccc(S(C)(=O)=O)cc1 [Example 77, 5-(3-Fluoro-2-methylphenyl)-4-[4-(methylsulfonyl)phenyl]-2-(trifluoromethyl)-1H-imidazole]	192 to 196 °C	–	–
CS(=O)(=O)c1ccc(-c2nc(C(F)(F)F)[nH]c2-c2ccc(Cl)c(Cl)c2)cc1 [Example 13, 5-(3,4-Dichlorophenyl)-4-[4-(methylsulfonyl)phenyl]-2-(trifluoromethyl)-1H-imidazole]	–	9.6 µM	–
Cc1cc(Cl)cc(-c2[nH]c(C(F)(F)F)nc2-c2ccc(S(C)(=O)=O)cc2)c1 [Example 54, 5-(3-Chloro-5-methylphenyl)-4-[-(methylsulfonyl)phenyl]-2-(trifluoromethyl)-1H-imidazole]	260 to 262 °C	–	–
Cc1ccc(-c2[nH]c(C(F)(F)F)nc2-c2ccc(S(C)(=O)=O)cc2)cc1Cl [Example 73, 5-(3-Chloro-4-methylphenyl)-4-[4-(methylsulfonyl)phenyl]-2-(trifluoromethyl)-1H-imidazole]	273 to 275 °C	–	–
Cc1ccc(-c2[nH]c(C(F)(F)F)nc2-c2ccc(S(C)(=O)=O)cc2)cc1F [Example 56, 5-(3-Fluoro-4-methylphenyl)-4-[4-(methylsulfonyl)phenyl]-2-(trifluoromethyl)-1H-imidazole]	251 to 252 °C	–	–
COc1cccc(-c2[nH]c(C(F)(F)F)nc2-c2ccc(S(C)(=O)=O)cc2)c1 [Example 65, 5-(3-Methoxyphenyl)-4-[4-(methylsulfonyl)phenyl]-2-(trifluoromethyl)-1H-imidazole]	202 to 208 °C	–	–
